Measured values reported in patent US11185537B2, “3-(5-amino-1-oxoisoindolin-2-yl)piperidine-2,6-dione derivatives and uses thereof” (Novartis AG, priority 2018, dated 2021).
Counter-ions that a name gives are not always drawn.

Target: IKZF2 (Helios) (Homo sapiens (Human), UniProt Q96SW2+Q9UKS7)
Test: Prolabel quantification of IKZF2 protein levels in 293GT cells
Method: The Prolabel system from DiscoverX was used to develop high-throughput and quantitative assays to measure changes in IKZF1, IKZF2, and GSPT1 protein levels in response to compounds. […] The complementary fragment of beta-galactosidase (from DiscoverX), is added to the prolabel tag to form an active beta galactosidase enzyme whose activity can be precisely measured. In this way, the levels of a fusion protein with the prolabel tag can be quantified in cell lysates.
Lentiviral vectors, based on the Invitrogen pLenti6.2/V5 DEST backbone, were constructed that placed the prolabel tag upstream of IKZF1, IKZF2, or GSPT1 and expressed the fusion protein from a CMV promoter.
To ensure moderate and consistent expression of the prolabel fusion proteins across all cells in the population, stable cell lines were constructed from cells expressing a single copy of the construct. Lentivirus packaged with the constructs was made using the Virapower kit from Invitrogen.
The levels of prolabel tagged fusion proteins in compound treated cell lines were measured as follows: […]
Day 3, Plates were removed from the incubator and allowed to equilibrate at rt for 30 minutes. […] Plates were incubated at rt for three hours and luminescence was read using an Envision reader (Perkin Elmer) Data was analyzed and visualized using the Spotfire software package.

Chain of IKZF2 (Helios) (Q9UKS7 whole entry): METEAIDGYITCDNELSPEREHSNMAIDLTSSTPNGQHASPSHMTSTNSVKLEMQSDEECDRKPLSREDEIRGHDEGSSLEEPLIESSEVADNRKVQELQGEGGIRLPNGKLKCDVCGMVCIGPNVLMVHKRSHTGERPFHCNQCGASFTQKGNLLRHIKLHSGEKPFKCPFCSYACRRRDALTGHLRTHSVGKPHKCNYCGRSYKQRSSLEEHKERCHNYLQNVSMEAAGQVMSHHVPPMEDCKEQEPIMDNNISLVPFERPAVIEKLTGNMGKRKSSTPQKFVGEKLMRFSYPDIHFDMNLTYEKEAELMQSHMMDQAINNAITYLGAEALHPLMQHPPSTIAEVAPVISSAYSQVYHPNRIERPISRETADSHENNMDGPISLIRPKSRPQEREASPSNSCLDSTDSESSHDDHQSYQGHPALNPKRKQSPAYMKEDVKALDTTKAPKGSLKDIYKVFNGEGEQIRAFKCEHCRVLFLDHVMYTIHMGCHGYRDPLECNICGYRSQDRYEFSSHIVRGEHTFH
Chain of IKZF2 (Helios) (Q96SW2 whole entry): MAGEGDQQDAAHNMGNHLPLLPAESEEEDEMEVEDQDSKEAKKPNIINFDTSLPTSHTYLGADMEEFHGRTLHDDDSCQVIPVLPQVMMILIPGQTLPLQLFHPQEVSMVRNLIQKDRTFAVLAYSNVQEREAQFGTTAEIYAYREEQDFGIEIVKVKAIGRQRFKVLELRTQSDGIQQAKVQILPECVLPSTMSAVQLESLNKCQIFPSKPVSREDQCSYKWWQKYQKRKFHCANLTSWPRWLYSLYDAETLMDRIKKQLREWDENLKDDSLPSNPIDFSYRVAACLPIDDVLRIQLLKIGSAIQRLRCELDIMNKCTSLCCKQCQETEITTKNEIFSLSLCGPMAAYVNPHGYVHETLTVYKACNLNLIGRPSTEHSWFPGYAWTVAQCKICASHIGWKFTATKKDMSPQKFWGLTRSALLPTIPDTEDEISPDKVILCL
Chain of IKZF2 (Helios) (Q16531 whole entry partner): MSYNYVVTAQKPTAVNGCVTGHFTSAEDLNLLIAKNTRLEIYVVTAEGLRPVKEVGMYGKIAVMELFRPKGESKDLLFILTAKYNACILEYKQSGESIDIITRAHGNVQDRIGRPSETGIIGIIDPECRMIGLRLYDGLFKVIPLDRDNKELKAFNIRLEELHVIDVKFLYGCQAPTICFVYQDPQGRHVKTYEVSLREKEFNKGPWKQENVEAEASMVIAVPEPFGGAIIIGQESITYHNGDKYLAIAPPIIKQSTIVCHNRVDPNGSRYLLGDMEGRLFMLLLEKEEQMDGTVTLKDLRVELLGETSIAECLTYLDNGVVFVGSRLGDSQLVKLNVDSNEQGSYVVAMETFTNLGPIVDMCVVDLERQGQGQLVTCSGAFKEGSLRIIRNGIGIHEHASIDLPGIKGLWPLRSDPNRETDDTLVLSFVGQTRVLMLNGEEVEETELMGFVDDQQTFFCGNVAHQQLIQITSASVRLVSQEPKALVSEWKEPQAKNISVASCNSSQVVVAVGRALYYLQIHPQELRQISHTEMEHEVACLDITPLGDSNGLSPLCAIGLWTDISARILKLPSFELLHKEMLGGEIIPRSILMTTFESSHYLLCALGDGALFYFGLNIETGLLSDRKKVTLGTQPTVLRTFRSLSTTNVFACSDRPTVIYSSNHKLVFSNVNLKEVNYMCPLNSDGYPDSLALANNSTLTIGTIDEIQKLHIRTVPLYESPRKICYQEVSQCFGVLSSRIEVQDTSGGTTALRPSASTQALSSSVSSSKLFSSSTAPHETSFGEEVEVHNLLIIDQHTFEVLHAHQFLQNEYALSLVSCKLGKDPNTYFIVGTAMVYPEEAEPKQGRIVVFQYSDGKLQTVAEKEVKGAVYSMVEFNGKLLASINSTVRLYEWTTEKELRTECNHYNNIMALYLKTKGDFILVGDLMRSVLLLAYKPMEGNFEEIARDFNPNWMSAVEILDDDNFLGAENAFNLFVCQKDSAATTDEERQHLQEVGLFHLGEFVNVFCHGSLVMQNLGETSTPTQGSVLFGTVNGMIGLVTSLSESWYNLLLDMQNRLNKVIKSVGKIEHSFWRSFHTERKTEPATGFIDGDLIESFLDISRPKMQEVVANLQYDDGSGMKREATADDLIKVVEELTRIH

**Q.** With `CN[C@H]1CCCC[C@@H]1N(C)c1ccc2c(c1)CN(C1CCC(=O)NC1=O)C2=O` (mixture of isomers) [I-9, Racemic trans-3-(5-(methyl(-2-(methylamino)cyclohexyl)amino)-1-oxoisoindolin-2-yl)piperidine-2,6-dione HC(O)OH Salt] as the molecule, how does the Dmax at 10 µM (24 h, read-out: IKZF2 % protein reduction at 10 μM, 24 h) read?
**A.** The Dmax at 10 µM was 65%.

**Q.** For `CC(C)CN[C@H]1CCCC[C@@H]1Nc1ccc2c(c1)CN(C1CCC(=O)NC1=O)C2=O` (stereo partly drawn) [I-15, 3-(5-(((1S,2S)-2-(isobutylamino)cyclohexyl)amino)-1-oxoisoindolin-2-yl)piperidine-2,6-dione], which EC50 (read-out: IKZF2 EC50, Pro-label assay, 293GT cells, degradation) is on record?
**A.** The EC50 was 0.94 µM.
